The record followed here is ChEMBL document CHEMBL5725403, “Compounds and pharmaceutical compositions thereof for the treatment of inflammatory disorders” (2017).

This assay concerns the target Autotaxin (Homo sapiens, UniProt Q13822). Put plainly: Human ENPP2 (hENPP2) Assay: Compound IC50 values are determined in a hENPP2 (UniProtKB/SwissProt Sequence ref Q13822) biochemical assay using LPC as substrate. […] The enzyme is diluted in 50 mM Tris-HCl pH 8.5, 500 mM NaCl, 5 mM KCl, 10 mM CaCl2, 0.1% fatty acid free BSA in a total volume of 10 μL. the reaction is started by the addition of 10 μL of 150 μM LPC (palmitoyl 16:0) diluted in the same buffer as described above and the mixture is incubated at 37° C. for 30 min. The reaction is terminated and choline quantified by the addition of a 25 μL of a mixture containing 0.6 U/mL of choline oxidase, 0.6 U/mL of peroxydase, 1.8 mM TOOS, 1.2 mM amino-antipyrine, 20 mM EGTA (stop-developer solution) diluted in the buffer described above. […] is read on the Envision after an incubation of 30 min at room temperature (Excitation 555 nm, excitation light=70%).

pIC50: −log10 of the molar value.

As to `CCc1nc2ccc(C3CCN(S(C)(=O)=O)CC3)cn2c1N(C)c1nc(-c2ccc(F)cc2)c(Br)s1`, the pIC50 is under 6.00.
